The experiment deals with T1, Urease Enzyme from Canavalia ensiformis (Jack bean) (Canavalia ensiformis, UniProt P07374).
T1 construct: purchased
Put plainly: Headspace ammonia measurement over treated cat litter inoculated with synthetic urine and urease. Type of experiment: biochemical. The following applies: headspace ammonia after 1 day; 100 g NATIONAL 12 Bentonite cat litter plus active, 10 mL inoculant (urea solution + urease); Sensidyne detector tubes.

T1 sequence (P07374 whole entry, looked up): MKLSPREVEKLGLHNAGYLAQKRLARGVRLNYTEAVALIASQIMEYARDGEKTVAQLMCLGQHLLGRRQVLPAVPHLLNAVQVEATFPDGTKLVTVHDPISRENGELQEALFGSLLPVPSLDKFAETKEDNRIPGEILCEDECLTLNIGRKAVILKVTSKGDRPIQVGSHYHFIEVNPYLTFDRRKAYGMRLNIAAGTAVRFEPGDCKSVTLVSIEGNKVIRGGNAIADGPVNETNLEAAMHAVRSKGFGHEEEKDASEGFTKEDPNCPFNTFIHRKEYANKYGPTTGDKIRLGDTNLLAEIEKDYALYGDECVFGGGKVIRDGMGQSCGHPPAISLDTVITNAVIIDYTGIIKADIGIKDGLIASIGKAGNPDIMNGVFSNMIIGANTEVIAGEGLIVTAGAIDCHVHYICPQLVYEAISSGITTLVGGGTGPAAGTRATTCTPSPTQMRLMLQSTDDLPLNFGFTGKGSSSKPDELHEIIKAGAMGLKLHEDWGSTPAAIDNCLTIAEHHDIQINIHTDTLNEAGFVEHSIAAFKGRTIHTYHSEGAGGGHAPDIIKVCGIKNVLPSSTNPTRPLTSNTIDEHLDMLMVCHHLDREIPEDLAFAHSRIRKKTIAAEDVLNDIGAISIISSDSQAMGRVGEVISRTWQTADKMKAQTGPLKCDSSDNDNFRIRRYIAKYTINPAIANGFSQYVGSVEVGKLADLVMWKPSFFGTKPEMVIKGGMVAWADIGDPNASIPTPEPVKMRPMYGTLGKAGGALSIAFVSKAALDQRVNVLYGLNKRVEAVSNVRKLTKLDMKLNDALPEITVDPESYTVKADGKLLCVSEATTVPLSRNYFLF
Experimental: In a bottle add the following components: Urea (ACS Reagent Grade): 18.8 g, and 250 g of deionized water. The bottle is capped and mixed to dissolve urea. The pH of the solution is measured to confirm the pH is between 6.5 and 7.
Immediately before use, mix 6.25 mL of Urease Enzyme from Canavalia ensiformis (Jack bean) in Glycerol (Type III, 500-800 units/mL) with the full volume of Synthetic Urine prepared above.
Charge a plastic bag with 100 g of untreated NATIONAL™ 12 Bentonite (particle size approximately 1.6 mm) cat litter. Add the active component or mixture, as prepared in the Active Mixture Preparation section, to the bag containing the untreated litter. Seal the bag to prevent loss of material and mix by shaking for 30 seconds. Pour the mixture into a hexagonal plastic weighboat contained within a 1 gallon sealable plastic container having a lid with a hole covered with tape. […]
Low (0.2-20 ppm) or high (5-260 ppm) range […] ® Ammonia Gas Detector Tubes are used to quantify the headspace ammonia concentration. The following procedure is used for ammonia detection and quantification in each test sample. […] Read the scale at the maximum point of the stained layer (yellow in color). Read and report the concentration immediately after measurement. If the reading is off scale, for example 20 ppm for the low range tubes, repeat the measurement using the high range gas detector tube. […]

On to `O=C([O-])CN(CCN(CC(=O)[O-])CC(=O)O)CC(=O)O.[K+].[K+]` [Example 2, K2EDTA], for which the “ppm Ammonia” value stood at 190 ppm.
As to `O=C(O)CC(O)(CC(=O)O)C(=O)O` [Example 3, Citric Acid], the “ppm Ammonia” value is reported as 140 ppm.

(Values after US20200009281A1, “ODOR CONTROL AGENT” (priority 2017, published 2020).)
